Assays:
late watergrass = experiment: Test Example 1: herbicidal activity, application before weed generation under submerged conditions (Table 16, symbol A); assay type: in vivo, late watergrass (Echinochloa oryzicola); settings: amount of applied herbicide 320 g/ha
In short: (§1)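 Alluvial soil was flooded to 4 cm depth, weed seeds were sown mixed and 2.5-leaf rice seedlings were transplanted. On sowing day, the compound's emulsion, diluted in water to a set dose, was applied to the water surface. Plants grew at 25–30 °C and were scored 0–5 after three weeks.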

Japanese bulrush = experiment: Test Example 1: herbicidal activity, application before weed generation under submerged conditions (Table 16, symbol B); assay type: in vivo, Japanese bulrush (Schoenoplectus juncoides); settings: amount of applied herbicide 320 g/ha
In short: as §1

oval-leafed pondweed = experiment: Test Example 1: herbicidal activity, application before weed generation under submerged conditions (Table 16, symbol C); assay type: in vivo, oval-leafed pondweed (Monochoria vaginalis); settings: amount of applied herbicide 320 g/ha
In short: as §1

barnyard grass [1] = experiment: Test Example 3: herbicidal effect by foliage application, Wagner pot (Table 18, symbol H); assay type: in vivo, barnyard grass (Echinochloa crus-galli); settings: amount of applied herbicide 320 g/ha
In short: (§2)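 Plants were sown in alluvial soil held under 0.1–0.5 cm standing water and grown 14 days in a greenhouse at 25–30 °C. An emulsifiable formulation, water-diluted to the set dose, was then sprayed onto the foliage, and effects were scored three weeks later using previously defined criteria.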

Chinese sprangletop = experiment: Test Example 3: herbicidal effect by foliage application, Wagner pot (Table 18, symbol D); assay type: in vivo, chinese sprangletop (Leptochloa chinensis); settings: amount of applied herbicide 320 g/ha
In short: as §2

rice flat sedge = experiment: Test Example 3: herbicidal effect by foliage application, Wagner pot (Table 18, symbol E); assay type: in vivo, rice flat sedge (Cyperus iria); settings: amount of applied herbicide 320 g/ha
In short: as §2

southern crabgrass [2] = experiment: Test Example 4: herbicidal effect by soil treatment (Table 19, symbol F); assay type: in vivo, southern crabgrass (Digitaria ciliaris); settings: amount of applied herbicide 320 g/ha
In short: (§3)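 Scoring uses the grading scale of an earlier test, three weeks post-application. Treatment consists of spraying a diluted emulsion formulation across the surface of sterilized diluvial soil in which seeds are buried near 1.5 cm deep; boxes are kept in a greenhouse between 25° C. and 30° C.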

green foxtail [3] = experiment: Test Example 4: herbicidal effect by soil treatment (Table 19, symbol G); assay type: in vivo, green foxtail (Setaria viridis); settings: amount of applied herbicide 320 g/ha
In short: as §3

barnyard grass [4] = experiment: Test Example 4: herbicidal effect by soil treatment (Table 19, symbol H); assay type: in vivo, barnyard grass (Echinochloa crus-galli); settings: amount of applied herbicide 320 g/ha
In short: as §3

wild oat [5] = experiment: Test Example 4: herbicidal effect by soil treatment (Table 19, symbol I); assay type: in vivo, wild oat (Avena fatua); settings: amount of applied herbicide 320 g/ha
In short: as §3

blackgrass [6] = experiment: Test Example 4: herbicidal effect by soil treatment (Table 19, symbol J); assay type: in vivo, blackgrass (Alopecurus myosuroides); settings: amount of applied herbicide 320 g/ha
In short: as §3

Italian ryegrass [7] = experiment: Test Example 4: herbicidal effect by soil treatment (Table 19, symbol K); assay type: in vivo, Italian ryegrass (Lolium multiflorum); settings: amount of applied herbicide 320 g/ha
In short: as §3

windgrass [8] = experiment: Test Example 4: herbicidal effect by soil treatment (Table 19, symbol L); assay type: in vivo, windgrass (Apera spica-venti); settings: amount of applied herbicide 320 g/ha
In short: as §3

velvetleaf [9] = experiment: Test Example 4: herbicidal effect by soil treatment (Table 19, symbol M); assay type: in vivo, velvetleaf (Abutilon theophrasti); settings: amount of applied herbicide 320 g/ha
In short: as §3

redroot pigweed [10] = experiment: Test Example 4: herbicidal effect by soil treatment (Table 19, symbol N); assay type: in vivo, redroot pigweed (Amaranthus retroflexus); settings: amount of applied herbicide 320 g/ha
In short: as §3

lambsquarters [11] = experiment: Test Example 4: herbicidal effect by soil treatment (Table 19, symbol O); assay type: in vivo, lambsquarters (Chenopodium album); settings: amount of applied herbicide 320 g/ha
In short: as §3

chickweed [12] = experiment: Test Example 4: herbicidal effect by soil treatment (Table 19, symbol P); assay type: in vivo, common chickweed (Stellaria media); settings: amount of applied herbicide 320 g/ha
In short: as §3

persian speedwell [13] = experiment: Test Example 4: herbicidal effect by soil treatment (Table 19, symbol R); assay type: in vivo, Persian speedwell (Veronica persica); settings: amount of applied herbicide 320 g/ha
In short: as §3

southern crabgrass [14] = experiment: Test Example 5: herbicidal effect by foliage application, plastic box (Table 20, symbol F); assay type: in vivo, southern crabgrass (Digitaria ciliaris); settings: foliage application, 320 g/ha, three weeks after application
In short: (§4)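 Post-emergence foliar test in sterilized diluvial soil. Compound applied as water-diluted emulsion at a predetermined rate to 14-day-old plants; evaluation at three weeks.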

green foxtail [15] = experiment: Test Example 5: herbicidal effect by foliage application, plastic box (Table 20, symbol G); assay type: in vivo, green foxtail (Setaria viridis); settings: foliage application, 320 g/ha, three weeks after application
In short: as §4

barnyard grass [16] = experiment: Test Example 5: herbicidal effect by foliage application, plastic box (Table 20, symbol H); assay type: in vivo, barnyard grass (Echinochloa crus-galli); settings: foliage application, 320 g/ha, three weeks after application
In short: as §4

wild oat [17] = experiment: Test Example 5: herbicidal effect by foliage application, plastic box (Table 20, symbol I); assay type: in vivo, wild oat (Avena fatua); settings: foliage application, 320 g/ha, three weeks after application
In short: as §4

blackgrass [18] = experiment: Test Example 5: herbicidal effect by foliage application, plastic box (Table 20, symbol J); assay type: in vivo, blackgrass (Alopecurus myosuroides); settings: foliage application, 320 g/ha, three weeks after application
In short: as §4

Italian ryegrass [19] = experiment: Test Example 5: herbicidal effect by foliage application, plastic box (Table 20, symbol K); assay type: in vivo, Italian ryegrass (Lolium multiflorum); settings: foliage application, 320 g/ha, three weeks after application
In short: as §4

windgrass [20] = experiment: Test Example 5: herbicidal effect by foliage application, plastic box (Table 20, symbol L); assay type: in vivo, windgrass (Apera spica-venti); settings: foliage application, 320 g/ha, three weeks after application
In short: as §4

velvetleaf [21] = experiment: Test Example 5: herbicidal effect by foliage application, plastic box (Table 20, symbol M); assay type: in vivo, velvetleaf (Abutilon theophrasti); settings: foliage application, 320 g/ha, three weeks after application
In short: as §4

redroot pigweed [22] = experiment: Test Example 5: herbicidal effect by foliage application, plastic box (Table 20, symbol N); assay type: in vivo, redroot pigweed (Amaranthus retroflexus); settings: foliage application, 320 g/ha, three weeks after application
In short: as §4

lambsquarters [23] = experiment: Test Example 5: herbicidal effect by foliage application, plastic box (Table 20, symbol O); assay type: in vivo, lambsquarters (Chenopodium album); settings: foliage application, 320 g/ha, three weeks after application
In short: as §4

chickweed [24] = experiment: Test Example 5: herbicidal effect by foliage application, plastic box (Table 20, symbol P); assay type: in vivo, common chickweed (Stellaria media); settings: foliage application, 320 g/ha, three weeks after application
In short: as §4

persian speedwell [25] = experiment: Test Example 5: herbicidal effect by foliage application, plastic box (Table 20, symbol R); assay type: in vivo, Persian speedwell (Veronica persica); settings: foliage application, 320 g/ha, three weeks after application
In short: as §4

COc1ccccc1-c1sc2cc(F)ccc2c1-c1c(OC(=O)COc2ccccc2)c(C)nn(C)c1=O [3-021]
Herbicidal effect, A: late watergrass (late watergrass): 3 (Herbicidal rate of 40% or more and less than 70%) | Herbicidal effect, B: Japanese bulrush (Japanese bulrush): 3 (Herbicidal rate of 40% or more and less than 70%) | Herbicidal effect, C: oval-leafed pondweed (oval-leafed pondweed): 4 (Herbicidal rate of 70% or more and less than 90%) | herbicidal effect on H: barnyard grass (barnyard grass [1]): 5 (Herbicidal rate of 90% or more (almost completely withered)) | herbicidal effect on D: Chinese sprangletop (Chinese sprangletop): 3 (Herbicidal rate of 40% or more and less than 70%) | herbicidal effect on E: rice flat sedge (rice flat sedge): 5 (Herbicidal rate of 90% or more (almost completely withered)) | herbicidal effect, F: southern crabgrass (southern crabgrass [2]): 3 (Herbicidal rate of 40% or more and less than 70%) | herbicidal effect, G: green foxtail (green foxtail [3]): 4 (Herbicidal rate of 70% or more and less than 90%) | herbicidal effect, H: barnyard grass (barnyard grass [4]): 4 (Herbicidal rate of 70% or more and less than 90%) | herbicidal effect, I: wild oat (wild oat [5]): 1 (Herbicidal rate of 5% or more and less than 20%) | herbicidal effect, J: blackgrass (blackgrass [6]): 4 (Herbicidal rate of 70% or more and less than 90%) | herbicidal effect, K: Italian ryegrass (Italian ryegrass [7]): 4 (Herbicidal rate of 70% or more and less than 90%) | herbicidal effect, L: windgrass (windgrass [8]): 3 (Herbicidal rate of 40% or more and less than 70%) | herbicidal effect, M: velvetleaf (velvetleaf [9]): 0 (Herbicidal rate of 5% or less (almost no effect)) | herbicidal effect, N: redroot pigweed (redroot pigweed [10]): 4 (Herbicidal rate of 70% or more and less than 90%) | herbicidal effect, O: lambsquarters (lambsquarters [11]): 4 (Herbicidal rate of 70% or more and less than 90%) | herbicidal effect, P: chickweed (chickweed [12]): 3 (Herbicidal rate of 40% or more and less than 70%) | herbicidal effect, R: persian speedwell (persian speedwell [13]): 4 (Herbicidal rate of 70% or more and less than 90%) | F: southern crabgrass, herbicidal effect grade (southern crabgrass [14]): 4 (Herbicidal rate of 70% or more and less than 90%) | G: green foxtail, herbicidal effect grade (green foxtail [15]): 5 (Herbicidal rate of 90% or more (almost completely withered)) | H: barnyard grass, herbicidal effect grade (barnyard grass [16]): 5 (Herbicidal rate of 90% or more (almost completely withered)) | I: wild oat, herbicidal effect grade (wild oat [17]): 4 (Herbicidal rate of 70% or more and less than 90%) | J: blackgrass, herbicidal effect grade (blackgrass [18]): 4 (Herbicidal rate of 70% or more and less than 90%) | K: Italian ryegrass, herbicidal effect grade (Italian ryegrass [19]): 4 (Herbicidal rate of 70% or more and less than 90%) | L: windgrass, herbicidal effect grade (windgrass [20]): 5 (Herbicidal rate of 90% or more (almost completely withered)) | M: velvetleaf, herbicidal effect grade (velvetleaf [21]): 5 (Herbicidal rate of 90% or more (almost completely withered)) | N: redroot pigweed, herbicidal effect grade (redroot pigweed [22]): 5 (Herbicidal rate of 90% or more (almost completely withered)) | O: lambsquarters, herbicidal effect grade (lambsquarters [23]): 5 (Herbicidal rate of 90% or more (almost completely withered)) | P: chickweed, herbicidal effect grade (chickweed [24]): 5 (Herbicidal rate of 90% or more (almost completely withered)) | R: persian speedwell, herbicidal effect grade (persian speedwell [25]): 4 (Herbicidal rate of 70% or more and less than 90%)
